Test results reported in US9963433B2, “Anticancer drugs including the chemical structures of an androgen receptor ligand and a histone deacetylase inhibitor” (Wayne State University, priority 2016, dated 2018).

Legend:
C4-2 cells = test: MTT cell viability assay, C4-2 cells; format: cell-based; conditions: MTT, Day 3; up to 10 μM; FIG. 6A
Procedure: (§1) (6A) C4-2 cells were seeded in 96-well plates and 24 h later, they were treated with the indicated compounds (0.1 μM-10 μM) or with vehicle (DMSO). Cell viability was measured by the MTT assay on Days 0 and 3 of treatment. EC50 values were calculated from nonlinear regression plots using GraphPad Prism5 software. […] Cell viability was measured by the MTT assay on Days 0 and 3 of treatment. […] Cell viability was measured by the MTT assay on Days 0 and 3 of treatment. […] (6D) 22Rv1 cells were infected with AR shRNA lentivirus, or control shRNA. 72 h after infection, cells were plated and viable cells were measured by the MTT assay on the indicated days (6D, bottom). Cells were also harvested for western blot analysis and probed with antibody to AR, which was also reactive with the AR splice variant AR-V7 (6D, top). (6E) 22Rv1 cells were seeded in 96-well plates and 24 h later, they were treated with the indicated compounds (0.1 μM-10 μM) or with vehicle (DMSO). Cell viability was measured by the MTT assay on Days 0 and 3 of treatment. EC50 values were calculated from nonlinear regression plots using GraphPad Prism5 software.
(§2) Cell Proliferation Assay. Cells were trypsinized and 6000 cells/well were seeded in 96-well plates coated with poly-D-lysine. The cells were seeded in phenol red-free medium supplemented with 10% FBS, 100 units/ml penicillin, 100 μg/ml streptomycin, 2 mM L-glutamine mixture and sodium pyruvate (1 mM) for C4-2 cells and phenol red-free medium supplemented with 10% FBS, 100 units/ml penicillin, 100 μg/ml streptomycin and 2 mM L-glutamine mixture for 22Rv1 cells. The cells were grown at 37° C. in 5% CO2. Twenty four hours after seeding in the 96-well plates, the cells were treated with indicated compound or DMSO (vehicle). The culture medium was not changed during the time course of the assay. On Day zero and on Day 3, cell viability was determined using the MTT assay. MTT (10 μL, 5 mg/mL) was added to each well and incubated for 2 h at 37° C. The formazan crystal sediments were dissolved in 100 μL of DMSO, and the absorbance at 570 nm was measured using the BioTek Synergy 2 Microplate Reader (BioTek, Winooski, Vt.). […] IC50 values were calculated from nonlinear […] plots using GraphPad Prism5 software.

22Rv1 cells = test: MTT cell viability assay, 22Rv1 cells; format: cell-based; conditions: Day 3, 0.1 μM-10 μM, FIG. 6E
Procedure: as §1, §2

[1] = system: HDACs from Hela cell nuclear extract; format: biochemical; conditions: HeLa cell nuclear extract; tested at 10 μM and 25 μM; FIG. 2B
Procedure: (§3) FIGS. 2A-2F show measurement of intrinsic and in situ HDACi activities. […] IC50 values were calculated from nonlinear regression plots using GraphPad Prism5 software. […] Recombinant HDAC6 was incubated with each drug at the indicated concentrations. IC50 values were calculated from nonlinear regression plots using GraphPad Prism5 software.
(§4) HDAC activity assay. In vitro HDAC inhibition was measured by using the HDAC fluorimetric assay/drug discovery Kit (Enzo Life Sciences, BML-AK500) and the HDAC6 fluorometric drug discovery kit (Enzo Life Sciences, BML-AK516) following the manufacturer's protocols and instructions. IC50 values were calculated from nonlinear […] plots using GraphPad Prism5 software.
(§5) HDAC1 and HDAC2 are enriched in nuclear extracts whereas HDAC6 is a cytosolic enzyme that is the principal modulator of the acetylation status of Hsp90. […] Again, TSA served as the positive control in FIG. 2D.

human recombinant HDAC6 = molecular target: T1, human recombinant HDAC6 (Homo sapiens, UniProt Q9UBN7); test: HDAC6 fluorometric assay, recombinant enzyme; format: biochemical; conditions: tested at 10 μM and 25 μM; FIG. 2D
T1 construct: purchased Enzo Life Sciences BML-AK516
T1 sequence (Q9UBN7 1-1215): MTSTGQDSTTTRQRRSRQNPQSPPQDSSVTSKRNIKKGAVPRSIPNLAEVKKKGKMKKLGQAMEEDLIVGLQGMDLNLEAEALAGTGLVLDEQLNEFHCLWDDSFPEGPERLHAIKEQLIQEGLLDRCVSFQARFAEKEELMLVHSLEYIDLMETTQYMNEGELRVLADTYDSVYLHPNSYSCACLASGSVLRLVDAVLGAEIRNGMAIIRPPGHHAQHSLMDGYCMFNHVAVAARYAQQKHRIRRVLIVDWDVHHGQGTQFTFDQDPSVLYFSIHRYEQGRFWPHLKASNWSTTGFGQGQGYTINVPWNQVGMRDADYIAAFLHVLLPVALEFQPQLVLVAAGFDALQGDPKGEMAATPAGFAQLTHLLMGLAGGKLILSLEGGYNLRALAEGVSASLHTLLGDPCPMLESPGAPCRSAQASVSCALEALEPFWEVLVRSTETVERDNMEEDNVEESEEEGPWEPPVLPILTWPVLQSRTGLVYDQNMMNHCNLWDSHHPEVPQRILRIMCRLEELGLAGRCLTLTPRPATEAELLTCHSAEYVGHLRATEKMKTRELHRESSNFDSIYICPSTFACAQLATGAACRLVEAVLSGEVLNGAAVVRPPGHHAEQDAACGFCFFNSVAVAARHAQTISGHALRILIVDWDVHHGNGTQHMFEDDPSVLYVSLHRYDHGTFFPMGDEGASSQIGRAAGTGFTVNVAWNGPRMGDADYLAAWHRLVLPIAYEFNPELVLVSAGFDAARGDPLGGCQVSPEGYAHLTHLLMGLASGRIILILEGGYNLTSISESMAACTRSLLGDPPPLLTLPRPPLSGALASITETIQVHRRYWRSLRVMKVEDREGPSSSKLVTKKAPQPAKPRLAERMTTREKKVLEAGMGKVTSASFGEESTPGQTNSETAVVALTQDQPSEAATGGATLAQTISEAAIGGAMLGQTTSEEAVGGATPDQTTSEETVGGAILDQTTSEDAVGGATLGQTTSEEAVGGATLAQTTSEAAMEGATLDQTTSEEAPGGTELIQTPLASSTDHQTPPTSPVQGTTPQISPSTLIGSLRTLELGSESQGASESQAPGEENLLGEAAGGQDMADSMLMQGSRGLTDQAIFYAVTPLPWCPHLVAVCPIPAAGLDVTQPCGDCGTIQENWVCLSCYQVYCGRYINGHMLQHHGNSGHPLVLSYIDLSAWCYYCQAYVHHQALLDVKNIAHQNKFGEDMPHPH
Procedure: as §3, §4, §5

`CCOC(=O)/C=C/c1ccc(N2C(=S)N(c3ccc(C#N)c(C(F)(F)F)c3)C(=O)C2(C)C)cc1F` [Compound 1002, (E)-ethyl-3-(4-(3-(4-cyano-3-(trifluoromethyl)phenyl)-5,5-dimethyl-4-oxo-2-thioxoimidazolidin-1-yl)-2-fluorophenyl)acrylate] was tested, and the “effect on C4-2 cell growth” value (C4-2 cells) was “unable to appreciably inhibit C4-2 cell growth”, the “effect on growth of 22Rv1 cells” value (22Rv1 cells) was “modest effect at high concentrations” and the “inhibition of nuclear HDAC activity” value [1] was “did not inhibit nuclear HDAC activity even up to a concentration of 25 μM”. For the same molecule, the “inhibitory activity against HDAC6” value (human recombinant HDAC6) was “did not show significant inhibitory activity”.
